Experimental data as given in patent publication US5582986A, “Antisense oligonucleotide inhibition of the ras gene” (Isis Pharmaceuticals, Inc., priority 1994, dated 1996).
pIC50: −log10 of the molar value.

Columns and labels:
[1] = tested on: normal (wild-type) H-ras-luciferase reporter gene in HeLa cells; experiment: ras-luciferase reporter gene expression, normal (wild-type) form, transient transfection; type: cell-based, human; conditions: dose-response, luciferase activity as % of untreated transfected cells, read-out: IC50, inhibition of ras-luciferase activity, normal form
[2] = tested on: mutant (activated, codon-12) H-ras-luciferase reporter gene in HeLa cells; experiment: ras-luciferase reporter gene expression, mutant (codon-12, activated) form, transient transfection; type: cell-based, human

## 2570: phosphorothioate 17-mer CCA-CAC-CGA-CGG-CGC-CC, targeted to the codon-12 point mutation of activated H-ras RNA (antisense CCACACCGACGGCGCCC; all phosphorothioate, sugars by position and methylation of C not given here) [Oligo 2570]
[1]
  pIC50: ~6.60
[2]; at low concentrations, dose-response (FIG. 2)
  selectivity toward the mutant form of ras-luciferase as compared to the normal form: approximately threefold
[2]; dose-response, HeLa cells, luciferase activity as % of untreated transfected cells, read-out: IC50, inhibition of ras-luciferase activity, mutant form
  pIC50: ~7.00
[2]; single dose 100 nM, HeLa cells, cationic lipid (FIG. 6)
  inhibition of mutant ras-luciferase relative to wild-type: four-fold
[2]; single dose 0.5 μM (FIG. 3, FIG. 4)
  selectivity toward the mutated form of ras-luciferase as compared to the normal form (in words): displayed selectivity toward the mutated form
